Results: patent EP0186440A2, “Method for producing benzoic acid derivatives” (Takeda Chemical Industries, Ltd., priority 1984, dated 1986)
Like-named read-outs stand apart in the source and are kept apart here.

Key:
[1] = parameters: species or system male mice of Jcl:ICR strain; settings: mouse, in vivo, po
Procedure: Five 5-week-old male mice of Jcl:ICR strain, weighing about 30 g each, were used. Compound A, C or E was suspended in a 5% solution of gum arabic and administered orally at the level of 0.2 ml per 10 grams body weight.

[2] = test system: synthetic leukotriene D4 (LTD4); assay: Bronchoconstriction in guinea pigs due to intravenous LTD4 (Konzett-Rössler method), compound given orally one hour before; format: in vivo, Guinea pigs of the Hartley strain; settings: Cavia porcellus, 1 h; 50% inhibitory dose; oral, one hour before LTD4 (10 µg/kg i.v.); inhibition of overflowing volume at maximal response, 30 seconds after LTD4; read-out: ID50(p.o.)
Procedure: Guinea pigs of the Hartley strain, both male and female, with body weights of about 400 g were assigned to groups of 6-10 individuals, and the bronchoconstriction due to LTD4 was measured according to the method of Konzett-Rossler, [Konzett, H. and Rössler, R.: Naunyn-Schmidebergs Archiv für Experimentelle Pathologie und Pharmakologie, 195, 71-74 (1940).] Each guinea pig was fixed in a supine position under urethane anesthesis (1.5 g/kg, intraperitoneal) and the trachea was incised and connected to an artificial respiration apparatus, Rodent Respirator Model 680 [Harvard Apparatus Company, U.S.A.] via a cannula. The branch tube of this tracheal cannula was connected to a Bronchospasm Transducer Model 7020 [Ugobasil Biological Research Apparatus, Italy]. Under the conditions of 4 to 7 ml of air per stroke, 70 strokes per minute and a lung loading pressure of 10 cmH20, the volume of overflowing air was recorded on Rectigraph-8S (San-eiSokki Ltd., Japan) via a transducer. After administration of gallamine triethiodide (1'mg/kg, i.v.), a solution of LTD4 in physiological saline (10 µg/kg) was intravenously administered and the bronchoconstriction elicited thereby was recorded for 15 minutes. The compound was used as suspended in a 5% solution of gum arabic or dissolved in water, and administered orally in a volume of 0.2 ml per 100 c body weight one hour before LTD4 loading. […]

Structure (SMILES) | Autopsy after 7 days ([1]; 2000 mg/kg) | symptoms attributable to the compound (acute toxicity) ([1]; 2000 mg/kg) | Autopsy after 7 days ([1]; 500 mg/kg) | symptoms attributable to the compound (acute toxicity) ([1]; 500 mg/kg) | ED50 [2] [µmol/kg]
CCCc1c(OCCCOc2ccc(C(=O)OCCN3CCOCC3)cc2Br)ccc(C(C)=O)c1O [C, 2-morpholinoethyl 4-[3-(4-acetyl-3-hydroxy-2-propylphenoxy)propoxy]-3-bromobenzoate] | did not reveal any abnormalities | no symptoms | – | – | –
CCCc1c(OCCCOc2ccc(C(=O)O)cc2Br)ccc(C(C)=O)c1OC(C)=O [Compound A, 4-[3-(3-acetoxy-4-acetyl-2-propylphenoxy)propoxy]-3-bromobenzoic acid] | – | – | did not reveal any abnormalities | no symptoms | 47
CCCc1c(OCCCOc2ccc(C(=O)OCCCN(C)C)cc2Br)ccc(C(C)=O)c1O [E, 3-dimethylaminopropyl 4-[3-(4-acetyl-3-hydroxy-2-propylphenoxy)propoxy]-3-bromobenzoate] | did not reveal any abnormalities | no symptoms | – | – | –
